Laboratory results taken from article PMC9228592, “Dichloroacetyl Amides of 3,5-Bis(benzylidene)-4-piperidones Displaying Greater Toxicity to Neoplasms than to Non-Malignant Cells” (Medicines, 2022).
*1 amine or outer side, *2 acyl side, *3 side chain or, on linkers, in order; H or OH if unused. Where a SMILES comes first, the peptide text is derived from it. Bridges are numbered along the chain shown (N, C = ends). Roman numbers before positions name the chains, in order. [ ]: non-standard residue; d: D form. Actinocin(9to1) = Cc1c2oc3c(C)ccc(C(=O)[*:1])c3nc-2c(C(=O)[*:2])c(N)c1=O; NMeV = CN[C@H](C(=O)O)C(C)C; Sar = CNCC(=O)O

Key:
Type in all cases: cell-based, human
[1] = test system: HSC-3 squamous cell carcinoma cells; assay: Cytotoxicity (MTT, 48 h) against HSC-3 cells; details: for CC50: Homo sapiens, HSC-3, 48 h, MTT, mean ± S.D. of triplicate; for SI (HSC-3): average CC50 towards HGF, HPLF, HPC divided by CC50 against HSC-3
From the text: (§1) The target cells used in our study were human oral squamous cell carcinoma cell lines Ca9-22 (purchased from RIKEN Cell Bank, Tukuba, RCB-1976), HSC-2 (RCB1945), HSC-3 (RCB1975), HSC-4 (RCB1902), and three human normal oral cells, gingival fibroblast (HGF), periodontal ligament fibroblast (HPLF), and pulp cells (HPC) [established from the first premolar extracted tooth in the lower jaw (because of dysfunctional position or orthodontic treatment) and periodontal tissues of a child, according to the guideline of the Institutional Board of Meikai University Ethics Committee (No. A0808)], after obtaining informed consent from the patients. These cells were incubated for 48 h with the indicated concentrations of test samples or reference compounds sodium dichloroacetate (purchased from Sigma-Aldrich Chemical Company, Saint Louis, MO, USA), 5-fluorouracil (5-FU) from Kyowa (Tokyo, Japan), and doxorubicin (DXR) (St. Louis, MO, USA) and vehicle (DMSO) (0.008, 0.016, 0.031, 0.063, 0.125, 0.25, 0.5, and 1%) in Dulbecco’s Modified Eagle Medium (DMEM) media, which was supplemented with 10% heat-inactivated fetal bovine serum. Cell viability was determined by the MTT method. Cytotoxicity caused by the vehicle (DMSO) was subtracted.
(§2) SI was calculated by dividing the average CC50 value (concentration of the compound to kill 50% of the cells) of the compound towards HGF, HPLF, and HPC cells by the CC50 value of the compound against a specific neoplastic cell line.

[2] = Cytotoxicity (MTT, 48 h) against HPLF non-malignant cells; details: human, normal periodontal ligament fibroblasts (HPLF), mean ± S.D. of triplicate
From the text: as §1

[3] = test system: HSC-2 squamous cell carcinoma cells; assay: Cytotoxicity (MTT, 48 h) against HSC-2 cells; details: for CC50: Homo sapiens, HSC-2; for SI (HSC-2): average CC50 towards HGF, HPLF, HPC divided by CC50 against HSC-2
From the text: as §1, §2

[4] = test system: Ca9-22 squamous cell carcinoma cells; assay: Cytotoxicity (MTT, 48 h) against Ca9-22 cells; details: for CC50: Homo sapiens, Ca9-22, 48 h, MTT, mean ± S.D. of triplicate; for SI (Ca9-22): average CC50 towards HGF, HPLF, HPC divided by CC50 against Ca9-22
From the text: as §1, §2

[5] = Cytotoxicity (MTT, 48 h) against HPC non-malignant cells; details: female, human, normal pulp cells (HPC), mean ± S.D. of triplicate
From the text: as §1

[6] = Cytotoxicity (MTT, 48 h) against HGF non-malignant cells; details: human, normal gingival fibroblasts (HGF), mean ± S.D. of triplicate
From the text: as §1

[7] = test system: Ca9-22, HSC-2, HSC-3, and HSC-4 cells; assay: Average cytotoxicity, selectivity and PSE over the four carcinoma lines; details: for CC50: Homo sapiens, average over Ca9-22, HSC-2, HSC-3, HSC-4; for Average SI: average of SI over Ca9-22, HSC-2, HSC-3, HSC-4
From the text: as §1, §2
PSE reflects both the potencies and differences in cytotoxicity to neoplasms and non-malignant cells. This value was the product of the reciprocal of the average CC50 value of the compounds towards Ca9-22, HSC-2, HSC-3, and HSC-4 cells and the average SI value × 100.

[8] = test system: HSC-4 squamous cell carcinoma cells; assay: Cytotoxicity (MTT, 48 h) against HSC-4 cells; details: for CC50: Homo sapiens, HSC-4, 48 h, MTT, mean ± S.D. of triplicate; for SI (HSC-4): average CC50 towards HGF, HPLF, HPC divided by CC50 against HSC-4
From the text: as §1, §2

[9] = Average cytotoxicity over the three non-malignant cells; details: female, human, normal oral cells HGF, HPLF and HPC (average over the three)
From the text: as §1

Ca9-22 cells [10] = assay: Cell cycle assay in Ca9-22 cells; details: 20 h; for G2M cell population: p < 0.05; for effect on the cell cycle: 0.1, 0.2, and 0.4 µM
Experimental: The evaluation of varying quantities of 1d,e,k on the cell cycle in Ca9-22 cells was undertaken by a literature method. In brief, Ca9-22 cells were treated for 20 h without (control) or with the indicated concentrations of the test samples. To neglect the cytotoxicity effect of DMSO, all samples contained 0.1% DMSO. Cells (approximately 10^6 cells) were harvested, fixed for 1 h on ice with 1% paraformaldehyde, washed twice by phosphate-buffered saline, treated for 30 min at 37 °C with 0.2 mg/mL RNase A (ribonuclease A), stained for 15 min at room temperature with 0.01% propidium iodide in the presence of 0.01% NP-40 (nonyl phenoxypolyethoxyethanol) to prevent cell aggregation, filtered through Falcon® cell strainers (pore size: 40 µm) (Corning, NY, USA), subjected to cell sorting (SH800 Series; SONY Imaging Products and Solutions Inc., Kanagawa, Japan), and then analyzed with Cell Sorter Software version 2.1.2. (SONY Imaging Products and Solutions Inc., Kanagawa, Japan).

Ca9-22 cells [11] = assay: Mitotic accumulation in Ca9-22 cells
Experimental: Another way in which cytotoxicity could occur is by initiating mitosis. In order to examine this possibility, different concentrations of the potent cytotoxin 1k that were 3, 10, and 30 times the CC50 value were incubated with Ca9-22 cells for 20 h. […] In order to explore the possibility that the dichloroacetyl group contributed to this effect, concentrations of 2a that were 3, 10, and 30 times the CC50 concentration were incubated with Ca9-22 cells for 20 h. […] The question arose as to the way in which this observation could be useful in anticancer drug design. Cells which are stimulated to divide are likely more sensitive to a subsequent attack of a cytotoxin when cells are in a resting stage, for example.

procaspase 3 = assay: Procaspase 3 cleavage in Ca9-22 cells (Western blot); details: for cleavage of procaspase to caspase 3: 20 h
Experimental: (§3) The effect of 20 h incubation of different concentrations of 1k and 2a with Ca9-22 cells on the cleavage of PARP and procaspase 3 cleavage was undertaken using a reported procedure. In brief, the control and treated Ca9-22 cells at near confluent phase were collected and lysed, and protein samples of cell lysates (15 µg) were applied to SDS-polyacrylamide gel electrophoresis. After electrophoresis, the separated proteins were transferred onto a PVDF (polyvinylidene fluoride) filter. The blots were treated in skim milk and then probed for 120 min with a primary antibody cocktail (1:250) from an Apoptosis Western Blot Cocktail kit (purchased from Abcam, Cambridge, UK). The blots were washed and probed with horseradish peroxidase conjugated secondary antibody cocktail (1:100). Immunoreactivities were determined using Amer-sham ECL Select. Images were acquired using ChemiDoc MP System and Image Lab 4.1 software (Bio-Rad Laboratories, Hercules, CA, USA).

PARP = PARP cleavage in Ca9-22 cells (Western blot)
Experimental: as §3

[12] = 48 h, MTT, mean ± S.D. of triplicate

| Compound | CC50 [1] | SI (HSC-3) [1] | CC50 at 48 h [2] | CC50 [3, 12] | SI (HSC-2) [3] | CC50 [4] | SI (Ca9-22) [4] | CC50 at 48 h [5] | CC50 at 48 h [6] | CC50 [7] | Average SI [7] | CC50 [8] | SI (HSC-4) [8] | CC50 at 48 h [9] | G2M cell population (Ca9-22 cells [10]; 0.8 µM) | effect on the cell cycle (Ca9-22 cells [10]) | further results |
| --- | --- | --- | --- | --- | --- | --- | --- | --- | --- | --- | --- | --- | --- | --- | --- | --- | --- |
| O=C1/C(=C/c2ccc(Cl)cc2)CN(C(=O)C(Cl)Cl)C/C1=C\c1ccc(Cl)cc1 [Compound 1d] | 0.19 ± 0.02 µM | 7.58 | 1.29 ± 0.14 µM | 0.1 ± 0.01 µM | 14.4 | 0.05 µM | 28.8 | 0.9 ± 0.02 µM | 2.13 ± 0.12 µM | 0.13 µM | 14.7 | 0.18 ± 0.04 µM | 8.00 | 1.44 µM | most prominent increase | little effects | – |
| O=C1/C(=C/c2ccc([N+](=O)[O-])cc2)CN(C(=O)C(Cl)Cl)C/C1=C\c1ccc([N+](=O)[O-])cc1 [Compound 1k] | 0.1 ± 0.03 µM | 14.4 | 0.76 ± 0.13 µM | 0.08 ± 0.01 µM | 18.0 | 0.02 ± 0.01 µM | – | 0.56 ± 0.08 µM | 3.01 ± 0.33 µM | 0.1 µM | 28.1 | 0.18 ± 0.04 µM | 8.00 | 1.44 µM | most prominent increase | little effects | HSC-2 CC50 [3, 12]: double-digit nanomolar; percentage of the cells undergoing mitosis (Ca9-22 cells [11]; two highest concentrations of 3, 10, 30 times the CC50 value, 20 h): increased significantly; cleavage of procaspase to caspase 3 (procaspase 3; 0.2 and 0.6 µM): cleavage of procaspase to caspase 3 was observed; average potency figure relative to 5-FU (times lower) ([7]; average CC50 compared with 5-FU): 310 times; subG1 population (Ca9-22 cells [10]; 0.8 µM): slight increase; PARP cleavage (PARP; 0.2 and 0.6 µM, 20 h): PARP was cleaved |
| O=C1C(=Cc2ccccc2)CNCC1=Cc1ccccc1 [Compound 2a, 3,5-bis(benzylidene)-4-piperidone] | 0.8 ± 0.07 µM | 14.6 | 9.1 ± 2.87 µM | 0.39 ± 0.01 µM | 30.0 | 0.19 ± 0.03 µM | – | 4.3 ± 0.72 µM | 21.7 ± 6 µM | 0.54 µM | 30.3 | 0.79 ± 0.22 µM | 14.8 | 11.7 µM | – | – | mitotic accumulation (Ca9-22 cells [11]; 2 µM and 6 µM, 20 h): mitotic accumulation occurred; cleavage of procaspase to caspase 3 (procaspase 3; 2 and 6 µM): cleavage of procaspase to caspase 3 was observed; PARP cleavage (PARP; 2 and 6 µM, 20 h): PARP was cleaved |
| COc1cccc2c1C(=O)c1c(O)c3c(c(O)c1C2=O)C[C@@](O)(C(=O)CO)C[C@@H]3O[C@H]1C[C@H](N)[C@H](O)[C@H](C)O1 [DXR, doxorubicin, reference compound] | 0.26 ± 0.21 µM | >36.7 | > 10 µM | 0.2 ± 0.02 µM | >47.8 | 0.43 ± 0.04 µM | >22.2 | > 8.65 µM | > 10 µM | 0.25 µM | >46.6 | 0.12 µM | >79.6 | > 9.55 µM | – | – | – |
| Cc1c2oc3c(C)ccc(C(=O)N[C@@H]4C(=O)N[C@H](C(C)C)C(=O)N5CCC[C@H]5C(=O)N(C)CC(=O)N(C)[C@@H](C(C)C)C(=O)O[C@@H]4C)c3nc-2c(C(=O)N[C@@H]2C(=O)N[C@H](C(C)C)C(=O)N3CCC[C@H]3C(=O)N(C)CC(=O)N(C)[C@@H](C(C)C)C(=O)O[C@@H]2C)c(N)c1=O [actinomycin D, reference compound] (I: T[dV]P[Sar][NMeV] / II: T[dV]P[Sar][NMeV]; ester I:1-I:C, II:1-II:C; linker I:N-II:N via Actinocin(9to1)) | – | – | – | – | – | – | – | – | – | – | – | – | – | – | – | – | mitosis (Ca9-22 cells [11]; 1 µM): Increased mitosis; procaspase 3 cleavage (procaspase 3; 1 µM): Cleavage; PARP cleavage (PARP; 1 µM): Cleavage |
